Test results: article PMC2680961, “Homologous desensitization of signalling by the alpha (α) isoform of the human thromboxane A2 receptor: A specific role for nitric oxide signalling” (Biochimica et Biophysica Acta, 2007)
Changes are numbered by the printed parent chain.

Assays:
TPα^T337,S340A = molecular target: T1, TPα^T337,S340A (Homo sapiens, UniProt P21731, S340A/T337A); experiment: [3H]SQ29,548 radioligand binding, Scatchard analysis, HEK.TPα^T337,S340A
T1 construct: expressed in transfected cells
T1 sequence (P21731 1-343 T337A/S340A): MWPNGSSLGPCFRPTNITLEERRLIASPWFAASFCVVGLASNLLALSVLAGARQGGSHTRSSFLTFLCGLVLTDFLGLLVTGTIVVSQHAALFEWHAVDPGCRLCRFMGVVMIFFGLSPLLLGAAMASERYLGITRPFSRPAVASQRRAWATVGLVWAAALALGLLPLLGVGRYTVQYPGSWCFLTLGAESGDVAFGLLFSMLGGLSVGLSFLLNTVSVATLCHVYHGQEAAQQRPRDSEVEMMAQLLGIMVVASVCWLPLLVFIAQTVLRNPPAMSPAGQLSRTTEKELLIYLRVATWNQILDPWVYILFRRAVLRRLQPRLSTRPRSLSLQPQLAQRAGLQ
Procedure: Cells were harvested by centrifugation at 500×g at 4 °C for 5 min and washed three times with ice-cold Ca^2+/Mg^2+-free phosphate-buffered saline (PBS). TP radioligand binding assays were carried out at 30 °C for 30 min in 100 μl reactions in the presence of 0–40 nM [^3H] […] Protein determinations were carried out using the Bradford assay.
Radioligand binding and Scatchard analysis data were analysed using GraphPad Prisim V4.0 programme (GraphPad Software Inc., San Diego CA, USA). Statistical analyses were carried out using the unpaired Student's t test using the Statworks Analysis Package. p-values ≤ 0.01 indicated statistically significant differences.

TPα^T337A = molecular target: T2, TPα^T337A (Homo sapiens, UniProt P21731, T337A); experiment: Intracellular calcium mobilization, HEK.TPα^T337A cells; assay type: cell-based; settings: for Δ[Ca2+]i, U46619-induced: HEK.TPα^T337A
T2 construct: expressed in transfected cells
T2 sequence (P21731 1-343 T337A): T1 sequence (P21731 1-343 T337A/S340A) with A340S
Procedure: Measurement of intracellular calcium mobilization ([Ca^2+]i) in FURA2/AM preloaded HEK 293 cell lines (2 × 10^6 cells/dish), each transiently co-transfected with pADVA (10 μg), and pCMV:Gαq (25 μg), was carried out as previously described. To investigate the effect of GRK2/βARK1 on TP-mediated [Ca^2+]i mobilization, HEK.TPα or HEK.TPβ cells (2 × 10^6 cells/dish) were co-transfected with pADVA (10 μg), pCMV:Gαq (25 μg) along with pRK5:βARK1^495–689 (25 μg), encoding a dominant negative form of GRK2/βARK1[39]. Approximately 48 h post-transfection, cells were harvested by scraping, washed twice in ice-cold PBS and resuspended in HBSSHB (modified Ca^2+/Mg^2+-free Hank's buffered salt solution, containing […], pH 7.67, 0.1% bovine serum albumin (BSA)) buffer at 10^7 cells/ml and incubated in the dark with 5 μM FURA2/AM for 45 min at 37 °C. […] For each measurement of [Ca^2+]i mobilization, aliquots of cells were diluted to 0.825 × 10^6 cells/ml in HBSSHB, 1 mM CaCl2 and FURA2 fluorescence was recorded (2 ml aliquots of cells) at 37^ °C with gentle stirring with a Perkin Elmer-Cetus LS50-B spectrofluorometer at excitation wavelengths of 340 nm and 380 nm and emission wavelength of 510 nm, respectively.
Cells were stimulated with the TP agonist U46619 (1 μM) and changes in [Ca^2+]i mobilization were monitored as a function of time. To assess agonist-mediated homologous desensitization, cells (0.825 × 10^6 cells/ml; 2 ml per assay) were stimulated with 1 μM U46619 (Primary stimulation) or, as a control, with the vehicle for 4 min; thereafter, cells were collected by centrifugation (900×g, 5 min); were washed twice in 2 ml HBSSHB, 1 mM CaCl2; and finally resuspended in 2 ml HBSSHB,1 mM CaCl2 and were left to recover over various time intervals (ranging from 0 to 60 min); thereafter, cells re-stimulated with 1 μM U46619 (Secondary stimulation) and changes in [Ca^2+]i mobilization were monitored as a function of time. […]

Bmax (pmol/mg protein ± S.E.M.) (TPα^T337,S340A) [pmol/mg protein] | Δ[Ca2+]i, U46619-induced (TPα^T337A; primary 1 μM U46619 4 min) [nM] | Δ[Ca2+]i, U46619-induced (TPα^T337A; secondary 1 μM U46619 at 15 min) [nM] | secondary U46619 [Ca2+]i response relative to primary response (TPα^T337A; TPα^T337A) [%] | Compound
4.9 ± 0.04 | – | – | – | O=C(O)CCC/C=C\C[C@@H]1[C@H](CNNC(=O)Nc2ccccc2)[C@H]2CC[C@@H]1O2 [SQ29,548]
– | 200 ± 9.2 | 49 ± 5 | 25 | CCCCC[C@H](O)/C=C/[C@@H]1[C@@H](C/C=C\CCCC(=O)O)[C@H]2CO[C@@H]1C2 [U46619]
